Laboratory results reported in ChEMBL document CHEMBL1201862, “PubChem BioAssay data set” (2004).
Activity calls are given as the source filed them.

How the values were obtained:
[1] = molecular target: T1, RNA-binding protein pos-1 (Caenorhabditis elegans, UniProt G5EF15); assay: inhibitors of POS-1/mex-3 RNA binding, dose response, biochemical, fluorescence polarization (AID 1964);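 also: purified POS-1 fused to maltose binding protein made in E. coli; potency of compounds blocking POS-1 binding to fluorescent RNA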
T1 sequence (G5EF15 whole entry): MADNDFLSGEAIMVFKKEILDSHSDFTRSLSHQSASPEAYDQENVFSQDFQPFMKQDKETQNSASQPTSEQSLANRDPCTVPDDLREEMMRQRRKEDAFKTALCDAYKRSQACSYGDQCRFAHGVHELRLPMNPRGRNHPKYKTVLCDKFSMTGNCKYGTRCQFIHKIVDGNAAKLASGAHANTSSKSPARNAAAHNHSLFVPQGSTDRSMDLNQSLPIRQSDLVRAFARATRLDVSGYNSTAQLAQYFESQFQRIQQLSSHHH

[2] = molecular target: T2, Zinc finger protein mex-5 (Caenorhabditis elegans, UniProt Q9XUB2); assay: MEX-5/TCR-2 RNA interaction inhibitors, dose response, biochemical, C. elegans, fluorescence polarization (AID 1960)
T2 sequence (Q9XUB2 whole entry): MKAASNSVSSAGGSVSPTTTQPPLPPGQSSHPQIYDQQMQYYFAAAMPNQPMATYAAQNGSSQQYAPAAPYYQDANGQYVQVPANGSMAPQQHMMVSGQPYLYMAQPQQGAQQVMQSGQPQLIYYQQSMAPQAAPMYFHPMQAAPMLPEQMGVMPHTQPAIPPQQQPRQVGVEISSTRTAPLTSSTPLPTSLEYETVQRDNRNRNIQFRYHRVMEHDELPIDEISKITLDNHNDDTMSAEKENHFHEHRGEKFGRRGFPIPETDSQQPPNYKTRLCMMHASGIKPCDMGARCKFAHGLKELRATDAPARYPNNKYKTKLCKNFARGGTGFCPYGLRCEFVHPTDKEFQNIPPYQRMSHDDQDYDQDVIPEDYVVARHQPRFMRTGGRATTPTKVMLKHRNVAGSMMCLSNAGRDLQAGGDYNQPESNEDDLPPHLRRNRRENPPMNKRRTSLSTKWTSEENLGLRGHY

[3] = molecular target: DNA dC->dU-editing enzyme APOBEC-3A (Homo sapiens, UniProt P31941); assay: Dose Response confirmation of small molecule APOBEC3A DNA Deaminase Inhibitors via a fluorescence-based single-stranded DNA deaminase assay. [Related pubchem assays (depositor defined):AID493011, AID493024]; type: functional
Sequence of DNA dC->dU-editing enzyme APOBEC-3A (P31941 whole entry): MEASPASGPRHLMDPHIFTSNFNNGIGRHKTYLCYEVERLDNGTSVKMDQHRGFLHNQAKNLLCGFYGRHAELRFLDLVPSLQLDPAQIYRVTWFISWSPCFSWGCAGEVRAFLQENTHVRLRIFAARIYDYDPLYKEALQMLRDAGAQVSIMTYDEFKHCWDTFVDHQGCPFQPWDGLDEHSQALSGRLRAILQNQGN

[4] = molecular target: DNA dC->dU-editing enzyme APOBEC-3G (Homo sapiens, UniProt Q9HC16); type: functional;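 also: Dose-response counterscreen measuring inhibition of APOBEC3G DNA deaminase activity, run while confirming APOBEC3A inhibitors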
Sequence of DNA dC->dU-editing enzyme APOBEC-3G (Q9HC16 whole entry): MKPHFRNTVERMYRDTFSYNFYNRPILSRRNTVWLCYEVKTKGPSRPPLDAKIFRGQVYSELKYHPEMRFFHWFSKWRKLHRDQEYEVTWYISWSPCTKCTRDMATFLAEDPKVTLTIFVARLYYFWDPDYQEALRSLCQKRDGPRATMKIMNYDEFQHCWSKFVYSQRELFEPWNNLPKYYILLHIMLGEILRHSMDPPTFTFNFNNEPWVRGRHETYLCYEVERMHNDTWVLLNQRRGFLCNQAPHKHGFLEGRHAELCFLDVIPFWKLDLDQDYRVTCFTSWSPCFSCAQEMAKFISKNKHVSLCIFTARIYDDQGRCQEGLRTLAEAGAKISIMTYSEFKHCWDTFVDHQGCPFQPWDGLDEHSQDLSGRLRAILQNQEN

[5] = molecular target: UDP-galactopyranose mutase (Mycobacterium tuberculosis, UniProt P9WIQ1); assay: Inhibitors of Mycobacterium tuberculosis UDP-galactopyranose mutase (UGM) enzyme Measured in Biochemical System Using Plate Reader - 2105-02_Inhibitor_Dose_CherryPick_Activity. [Related pubchem assays (depositor defined):AID504439]
Sequence of UDP-galactopyranose mutase (P9WIQ1 whole entry): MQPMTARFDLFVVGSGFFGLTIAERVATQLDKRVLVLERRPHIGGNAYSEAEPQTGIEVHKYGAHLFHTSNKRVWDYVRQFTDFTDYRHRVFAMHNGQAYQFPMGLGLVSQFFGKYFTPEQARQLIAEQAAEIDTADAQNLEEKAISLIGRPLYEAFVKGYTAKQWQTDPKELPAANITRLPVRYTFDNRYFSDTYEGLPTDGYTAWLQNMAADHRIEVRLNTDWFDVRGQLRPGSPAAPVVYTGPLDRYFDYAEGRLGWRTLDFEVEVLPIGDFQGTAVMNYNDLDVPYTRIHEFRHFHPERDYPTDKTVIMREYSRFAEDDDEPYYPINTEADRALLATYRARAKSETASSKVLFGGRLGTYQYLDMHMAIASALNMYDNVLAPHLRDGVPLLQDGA

Caspase-3 = molecular target: T3, Caspase-3 (Homo sapiens, UniProt P42574); type: functional;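 also: Dose-response selectivity test against caspase-3 for candidate inhibitors of sentrin-specific proteases (SENPs)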
T3 sequence (P42574 whole entry): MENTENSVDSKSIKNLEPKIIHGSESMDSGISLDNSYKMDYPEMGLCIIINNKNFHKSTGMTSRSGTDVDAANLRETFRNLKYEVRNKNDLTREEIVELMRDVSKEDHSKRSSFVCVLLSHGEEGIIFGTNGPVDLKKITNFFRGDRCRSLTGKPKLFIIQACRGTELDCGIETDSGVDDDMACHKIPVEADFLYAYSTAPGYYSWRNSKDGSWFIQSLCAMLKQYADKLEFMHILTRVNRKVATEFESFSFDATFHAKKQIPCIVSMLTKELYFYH

[6] = molecular target: T4, Sentrin-specific protease 7 (Homo sapiens, UniProt Q9BQF6); type: functional;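 also: Luminescence-based dose-response confirmation of ultra-high-throughput screening hits, measuring inhibition of SENP7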
T4 sequence (Q9BQF6 whole entry): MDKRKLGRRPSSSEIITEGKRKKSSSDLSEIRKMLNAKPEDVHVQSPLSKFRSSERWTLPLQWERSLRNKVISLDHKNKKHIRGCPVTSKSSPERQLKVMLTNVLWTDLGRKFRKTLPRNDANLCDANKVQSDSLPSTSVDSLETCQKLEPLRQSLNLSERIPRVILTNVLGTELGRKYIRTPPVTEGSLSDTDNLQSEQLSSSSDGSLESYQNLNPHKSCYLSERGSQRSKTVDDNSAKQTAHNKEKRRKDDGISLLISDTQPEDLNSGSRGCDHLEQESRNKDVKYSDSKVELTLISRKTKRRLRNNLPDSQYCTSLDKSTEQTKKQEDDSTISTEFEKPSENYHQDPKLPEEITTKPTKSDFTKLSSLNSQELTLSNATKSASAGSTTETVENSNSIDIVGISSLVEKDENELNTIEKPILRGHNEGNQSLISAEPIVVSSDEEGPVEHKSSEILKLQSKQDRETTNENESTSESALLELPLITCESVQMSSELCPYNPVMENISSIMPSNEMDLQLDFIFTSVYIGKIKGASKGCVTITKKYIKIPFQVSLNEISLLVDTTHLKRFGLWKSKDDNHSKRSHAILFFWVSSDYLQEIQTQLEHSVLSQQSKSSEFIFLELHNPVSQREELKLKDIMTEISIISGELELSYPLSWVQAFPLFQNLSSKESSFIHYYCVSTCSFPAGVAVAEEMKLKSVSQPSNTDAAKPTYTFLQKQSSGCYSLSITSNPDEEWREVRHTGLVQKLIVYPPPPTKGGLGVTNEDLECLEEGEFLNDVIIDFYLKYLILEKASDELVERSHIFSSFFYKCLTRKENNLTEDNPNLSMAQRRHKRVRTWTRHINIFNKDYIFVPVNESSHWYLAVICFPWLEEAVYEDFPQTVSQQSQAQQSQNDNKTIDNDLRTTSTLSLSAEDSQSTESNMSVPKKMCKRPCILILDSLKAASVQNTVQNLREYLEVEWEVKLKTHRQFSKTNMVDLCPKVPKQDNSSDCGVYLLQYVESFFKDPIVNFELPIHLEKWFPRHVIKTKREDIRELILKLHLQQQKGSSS

[7] = molecular target: T5, Sentrin-specific protease 6 (Homo sapiens, UniProt Q9GZR1); type: functional;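 also: Luminescence-based dose-response confirmatory assay of SENP6 inhibition, following up an ultra-high-throughput screen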
T5 sequence (Q9GZR1 whole entry): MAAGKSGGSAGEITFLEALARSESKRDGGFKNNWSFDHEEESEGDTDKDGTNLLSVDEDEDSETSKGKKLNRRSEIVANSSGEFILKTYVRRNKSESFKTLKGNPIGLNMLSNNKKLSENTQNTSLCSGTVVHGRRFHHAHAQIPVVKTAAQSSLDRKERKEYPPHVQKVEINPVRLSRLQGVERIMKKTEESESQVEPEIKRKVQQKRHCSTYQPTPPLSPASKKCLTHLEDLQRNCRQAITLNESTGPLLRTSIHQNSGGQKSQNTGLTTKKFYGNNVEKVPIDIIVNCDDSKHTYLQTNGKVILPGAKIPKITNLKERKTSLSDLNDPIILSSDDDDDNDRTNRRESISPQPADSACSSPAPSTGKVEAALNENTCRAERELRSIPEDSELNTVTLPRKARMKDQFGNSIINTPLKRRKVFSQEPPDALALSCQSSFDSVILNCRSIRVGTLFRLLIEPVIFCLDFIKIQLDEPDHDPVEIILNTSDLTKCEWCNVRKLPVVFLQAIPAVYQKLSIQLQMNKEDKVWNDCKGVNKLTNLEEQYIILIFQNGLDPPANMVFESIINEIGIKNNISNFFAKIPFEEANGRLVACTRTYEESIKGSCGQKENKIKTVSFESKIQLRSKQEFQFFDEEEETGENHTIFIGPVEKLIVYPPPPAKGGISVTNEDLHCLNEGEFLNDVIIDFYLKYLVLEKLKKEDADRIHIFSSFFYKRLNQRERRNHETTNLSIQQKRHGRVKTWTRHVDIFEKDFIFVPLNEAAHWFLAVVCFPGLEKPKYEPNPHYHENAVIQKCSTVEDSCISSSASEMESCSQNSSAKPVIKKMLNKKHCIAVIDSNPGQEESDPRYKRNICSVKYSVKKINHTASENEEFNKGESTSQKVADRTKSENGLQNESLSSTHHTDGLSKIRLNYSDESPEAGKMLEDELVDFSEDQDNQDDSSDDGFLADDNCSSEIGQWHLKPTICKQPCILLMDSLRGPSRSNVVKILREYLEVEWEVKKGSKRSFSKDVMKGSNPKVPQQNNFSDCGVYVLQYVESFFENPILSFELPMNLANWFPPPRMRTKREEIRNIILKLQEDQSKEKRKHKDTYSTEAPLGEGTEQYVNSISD

[8] = molecular target: T6, Sentrin-specific protease 8 (Homo sapiens, UniProt Q96LD8); type: functional;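 also: luminescence read-out of SENP8 inhibition, dose-response confirmation following an ultra-high-throughput screen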
T6 sequence (Q96LD8 whole entry): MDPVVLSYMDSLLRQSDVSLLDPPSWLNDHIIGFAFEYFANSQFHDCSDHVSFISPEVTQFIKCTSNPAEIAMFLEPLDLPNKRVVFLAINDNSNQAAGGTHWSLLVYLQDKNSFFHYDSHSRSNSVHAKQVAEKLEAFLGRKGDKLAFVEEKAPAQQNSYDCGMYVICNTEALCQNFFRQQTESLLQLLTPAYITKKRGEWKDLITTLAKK

HEK293 [9] = assay: NOD1 signaling inhibitors, primary screen, cell-based, luminescence, uHTS (AID 1578); type: functional; details: Homo sapiens
HEK293 [10] = assay: cells; type: functional, cell-based; details: Homo sapiens
HEK293 [11] = assay: cells; type: functional, cell-based; details: Homo sapiens; remark: listed apart in the source
[12] = molecular target: Nucleotide-binding oligomerization domain-containing protein 2 (Homo sapiens, UniProt Q9HC29); assay: NOD2 signaling inhibitors, cell-based, luminescence, uHTS, HEK293 (AID 1566); type: functional
Sequence of Nucleotide-binding oligomerization domain-containing protein 2 (Q9HC29 whole entry, the tested form may be a part): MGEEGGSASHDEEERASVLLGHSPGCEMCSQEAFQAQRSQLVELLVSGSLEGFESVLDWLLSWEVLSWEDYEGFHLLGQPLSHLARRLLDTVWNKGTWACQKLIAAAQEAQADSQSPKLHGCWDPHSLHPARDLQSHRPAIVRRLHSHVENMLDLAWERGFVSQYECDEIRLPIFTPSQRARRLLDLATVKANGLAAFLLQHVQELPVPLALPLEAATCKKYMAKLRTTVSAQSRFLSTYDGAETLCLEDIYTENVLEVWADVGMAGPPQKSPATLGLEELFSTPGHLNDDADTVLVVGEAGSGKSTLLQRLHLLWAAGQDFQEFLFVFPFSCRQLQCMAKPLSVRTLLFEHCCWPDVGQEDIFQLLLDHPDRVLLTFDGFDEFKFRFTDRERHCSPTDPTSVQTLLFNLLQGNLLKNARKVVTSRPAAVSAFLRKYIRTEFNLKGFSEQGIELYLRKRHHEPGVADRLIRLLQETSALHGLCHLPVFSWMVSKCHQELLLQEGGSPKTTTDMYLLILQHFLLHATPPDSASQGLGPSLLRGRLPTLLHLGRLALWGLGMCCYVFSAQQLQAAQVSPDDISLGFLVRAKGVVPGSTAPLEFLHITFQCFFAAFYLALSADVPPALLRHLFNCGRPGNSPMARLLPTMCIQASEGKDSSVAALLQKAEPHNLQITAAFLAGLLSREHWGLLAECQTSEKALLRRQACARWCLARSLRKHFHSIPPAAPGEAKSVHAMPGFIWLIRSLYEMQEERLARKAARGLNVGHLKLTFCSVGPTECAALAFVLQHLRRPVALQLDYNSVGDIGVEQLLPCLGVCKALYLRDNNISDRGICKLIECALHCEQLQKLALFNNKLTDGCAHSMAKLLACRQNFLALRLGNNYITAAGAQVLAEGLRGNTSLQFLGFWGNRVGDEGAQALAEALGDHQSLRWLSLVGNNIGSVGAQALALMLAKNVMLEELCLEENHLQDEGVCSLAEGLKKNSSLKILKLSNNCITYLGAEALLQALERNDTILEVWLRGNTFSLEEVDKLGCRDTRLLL

HEK293 [13] = assay: NOD2 signaling inhibitors in MDP-stimulated cells, cell-based, uHTS, luminescence (AID 2001); type: functional; details: Homo sapiens
HEK293 [14] = assay: cells; type: functional, cell-based; details: Homo sapiens; remark: listed apart in the source
Cysteine protease ATG4B = Cysteine protease ATG4B (Homo sapiens, UniProt Q9Y4P1); type: functional;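 also: Fluorescence-based dose-response confirmation assay measuring inhibition of ATG4B activity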
Sequence of Cysteine protease ATG4B (Q9Y4P1 whole entry): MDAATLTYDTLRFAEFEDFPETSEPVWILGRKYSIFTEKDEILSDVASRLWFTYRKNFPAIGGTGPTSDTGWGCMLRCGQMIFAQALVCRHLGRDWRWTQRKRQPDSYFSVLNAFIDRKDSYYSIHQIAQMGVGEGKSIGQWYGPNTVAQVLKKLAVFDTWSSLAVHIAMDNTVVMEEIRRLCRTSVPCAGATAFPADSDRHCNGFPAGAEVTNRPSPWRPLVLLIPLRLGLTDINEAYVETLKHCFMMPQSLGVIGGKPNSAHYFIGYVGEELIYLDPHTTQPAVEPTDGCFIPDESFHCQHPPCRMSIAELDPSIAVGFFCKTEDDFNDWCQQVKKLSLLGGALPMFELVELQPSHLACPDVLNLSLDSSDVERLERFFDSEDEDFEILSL

Phospholipase A2 = Phospholipase A2 (Homo sapiens, UniProt P04054); type: functional;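 also: confirmatory dose-response counterscreen on phospholipase A2, testing hits that came from an ultra-high-throughput screen for ATG4B inhibitors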
Sequence of Phospholipase A2 (P04054 whole entry): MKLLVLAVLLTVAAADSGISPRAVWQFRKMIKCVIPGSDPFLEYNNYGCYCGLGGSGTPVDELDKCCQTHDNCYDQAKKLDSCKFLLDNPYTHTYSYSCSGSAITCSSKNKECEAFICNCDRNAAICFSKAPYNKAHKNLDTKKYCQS

Large T antigen = Large T antigen (Simian virus 40, UniProt P03070); type: functional, Betapolyomavirus macacae;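 also: Confirmatory-stage PubChem screen for compounds that inhibit SV40 T antigen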
Sequence of Large T antigen (P03070 whole entry): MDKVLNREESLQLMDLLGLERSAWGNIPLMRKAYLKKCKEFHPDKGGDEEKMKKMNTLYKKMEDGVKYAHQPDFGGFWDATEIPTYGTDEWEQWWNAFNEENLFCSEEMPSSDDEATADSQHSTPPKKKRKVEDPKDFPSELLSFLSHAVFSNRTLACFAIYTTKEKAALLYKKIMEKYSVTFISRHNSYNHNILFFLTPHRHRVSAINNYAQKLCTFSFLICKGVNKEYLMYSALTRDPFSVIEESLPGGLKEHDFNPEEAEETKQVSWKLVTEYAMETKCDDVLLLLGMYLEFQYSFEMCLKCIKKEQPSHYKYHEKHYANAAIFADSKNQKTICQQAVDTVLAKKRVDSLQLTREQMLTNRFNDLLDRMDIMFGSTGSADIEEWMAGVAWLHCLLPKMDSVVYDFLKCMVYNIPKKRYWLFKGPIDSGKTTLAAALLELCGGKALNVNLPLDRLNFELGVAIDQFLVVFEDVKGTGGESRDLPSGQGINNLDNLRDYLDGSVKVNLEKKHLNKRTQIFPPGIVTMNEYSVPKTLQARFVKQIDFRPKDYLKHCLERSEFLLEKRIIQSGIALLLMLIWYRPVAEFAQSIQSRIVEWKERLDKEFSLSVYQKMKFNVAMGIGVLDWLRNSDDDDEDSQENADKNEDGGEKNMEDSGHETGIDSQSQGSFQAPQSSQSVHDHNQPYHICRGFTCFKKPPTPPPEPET

[15] = molecular target: Glucose-6-phosphate 1-dehydrogenase (Homo sapiens, UniProt P11413); assay: human G6PD enzyme inhibitors, dose response, selectivity assay for P. falciparum G6PD inhibitor project, biochemical, fluorescence (AID 504792); type: functional
Sequence of Glucose-6-phosphate 1-dehydrogenase (P11413 whole entry): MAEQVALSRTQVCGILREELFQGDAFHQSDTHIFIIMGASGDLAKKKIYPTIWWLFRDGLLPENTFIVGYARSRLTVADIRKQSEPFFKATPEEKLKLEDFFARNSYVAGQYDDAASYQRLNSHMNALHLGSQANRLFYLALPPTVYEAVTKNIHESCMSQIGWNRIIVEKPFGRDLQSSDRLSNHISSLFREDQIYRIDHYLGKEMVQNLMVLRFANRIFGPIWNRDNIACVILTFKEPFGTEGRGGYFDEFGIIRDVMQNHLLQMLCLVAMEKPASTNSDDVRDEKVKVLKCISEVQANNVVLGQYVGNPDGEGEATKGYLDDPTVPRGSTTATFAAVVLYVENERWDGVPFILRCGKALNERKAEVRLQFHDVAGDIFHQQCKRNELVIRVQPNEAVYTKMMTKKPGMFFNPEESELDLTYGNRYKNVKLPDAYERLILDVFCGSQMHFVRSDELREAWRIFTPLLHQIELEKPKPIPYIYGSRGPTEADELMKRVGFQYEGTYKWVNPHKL

[16] = molecular target: T7, Tyrosine-protein phosphatase non-receptor type 7 (Homo sapiens, UniProt P35236); type: functional
T7 sequence (P35236 whole entry): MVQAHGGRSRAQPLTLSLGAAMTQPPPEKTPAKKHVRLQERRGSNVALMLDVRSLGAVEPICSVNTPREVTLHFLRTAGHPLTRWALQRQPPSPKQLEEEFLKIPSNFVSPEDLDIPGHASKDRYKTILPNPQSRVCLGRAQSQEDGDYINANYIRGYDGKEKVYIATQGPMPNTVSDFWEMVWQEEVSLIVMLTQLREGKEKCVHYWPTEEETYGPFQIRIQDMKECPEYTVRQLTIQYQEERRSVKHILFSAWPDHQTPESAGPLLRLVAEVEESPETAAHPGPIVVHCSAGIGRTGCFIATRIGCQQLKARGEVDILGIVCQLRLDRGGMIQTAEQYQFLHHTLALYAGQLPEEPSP

[17] = molecular target: T8, Tyrosine-protein phosphatase non-receptor type 22 (Homo sapiens, UniProt Q9Y2R2); type: functional
T8 sequence (Q9Y2R2 whole entry): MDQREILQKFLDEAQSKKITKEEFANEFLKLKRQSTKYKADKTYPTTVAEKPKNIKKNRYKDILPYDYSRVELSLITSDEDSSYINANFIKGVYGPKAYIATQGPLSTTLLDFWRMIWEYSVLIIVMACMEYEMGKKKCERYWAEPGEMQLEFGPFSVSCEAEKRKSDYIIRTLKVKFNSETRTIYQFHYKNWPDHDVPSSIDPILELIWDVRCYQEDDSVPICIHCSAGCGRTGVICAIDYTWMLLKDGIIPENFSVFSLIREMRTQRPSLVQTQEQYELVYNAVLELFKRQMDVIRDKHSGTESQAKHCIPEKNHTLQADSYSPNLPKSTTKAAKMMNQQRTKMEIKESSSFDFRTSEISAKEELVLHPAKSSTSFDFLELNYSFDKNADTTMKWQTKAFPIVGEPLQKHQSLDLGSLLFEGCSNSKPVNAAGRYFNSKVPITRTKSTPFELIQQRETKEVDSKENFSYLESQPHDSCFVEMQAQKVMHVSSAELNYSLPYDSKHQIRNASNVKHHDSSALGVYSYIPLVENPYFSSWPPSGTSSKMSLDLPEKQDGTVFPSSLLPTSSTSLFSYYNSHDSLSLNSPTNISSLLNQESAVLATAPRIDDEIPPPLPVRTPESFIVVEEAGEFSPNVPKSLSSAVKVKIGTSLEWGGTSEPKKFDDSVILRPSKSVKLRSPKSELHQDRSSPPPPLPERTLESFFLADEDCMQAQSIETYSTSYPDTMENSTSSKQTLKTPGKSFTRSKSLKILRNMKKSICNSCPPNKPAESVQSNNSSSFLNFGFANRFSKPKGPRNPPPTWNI

[18] = molecular target: T8, Tyrosine-protein phosphatase non-receptor type 22; type: functional; remark: listed apart in the source

NC(=O)C[n+]1cccc2ccccc21
EC50 [1]: 29.7 µM (active) | EC50 [2]: 22.3 µM (active) | IC50 [3]: 2.69 µM (active) | IC50 [4]: 2.52 µM (active) | AC50 [5]: 311 µM (active)

CC1=NN(C(N)=S)C(=O)C1N=Nc1ccc(Cl)cc1 (centres undefined)
IC50 (Caspase-3): 1.59 µM (active) | IC50 [6]: 2.07 µM (active) | IC50 [7]: 2.96 µM (active) | IC50 [8]: 2.58 µM (active)

CC(=O)Nc1ccc(C(=O)Nc2nc(-c3cc(C)n(Cc4ccccc4)c3C)cs2)cc1
EC50 (HEK293 [9]): > 20 µM (inactive) | IC50 (HEK293 [10]): > 20 µM (inactive) | IC50 (HEK293 [11]): > 20 µM (inactive) | EC50 [12]: > 20 µM (inactive) | IC50 (HEK293 [13]): > 20 µM (inactive) | IC50 (HEK293 [14]): > 20 µM (inactive) | IC50 (Cysteine protease ATG4B): 10.2 µM (active) | IC50 (Phospholipase A2): 5.37 µM (active)

c1cncc(CNc2ccc3c(c2)OCO3)c1
IC50 (Large T antigen): 25.4 µM (active) | IC50 [15]: > 80 µM (inactive)

c1csc(-c2csc(-c3cccs3)n2)c1
IC50 (Caspase-3): 25.3 µM (active) | IC50 [6]: 5.92 µM (active) | IC50 [7]: 20.1 µM (active) | IC50 [8]: 28.2 µM (active)

CCC1CCCCN1CCCNC(=O)c1ccc(CS(=O)(=O)Cc2ccccc2F)o1 (centres undefined)
IC50 [16]: > 79.4 µM (inactive) | IC50 [17]: > 79.4 µM (inactive) | IC50 [18]: > 79.4 µM (inactive)

Cc1cc(C)cc(OCC(=O)N/N=C\c2cn(C)nc2C)c1
IC50 [16]: > 79.4 µM (inactive) | IC50 [17]: > 79.4 µM (inactive) | IC50 [18]: > 79.4 µM (inactive)
